In article PMC9967758, “Preclinical Efficacy of a PARP-1 Targeted Auger-Emitting Radionuclide in Prostate Cancer” (International Journal of Molecular Sciences, 2023) one finds Kd data, which are given here for 1 substance.

One may read the Kd as a measure of binding affinity in units of concentration. High values mean weaker binding, low ones tighter binding.

For this test, the target named is T1, Poly (ADP-ribose) polymerase-1 (PARP-1) (Homo sapiens, UniProt P09874).
T1 construct: gene PARP1
Kind of test: radioligand saturation binding in PC-3 tumor xenografts.

T1 sequence (P09874 2-1014): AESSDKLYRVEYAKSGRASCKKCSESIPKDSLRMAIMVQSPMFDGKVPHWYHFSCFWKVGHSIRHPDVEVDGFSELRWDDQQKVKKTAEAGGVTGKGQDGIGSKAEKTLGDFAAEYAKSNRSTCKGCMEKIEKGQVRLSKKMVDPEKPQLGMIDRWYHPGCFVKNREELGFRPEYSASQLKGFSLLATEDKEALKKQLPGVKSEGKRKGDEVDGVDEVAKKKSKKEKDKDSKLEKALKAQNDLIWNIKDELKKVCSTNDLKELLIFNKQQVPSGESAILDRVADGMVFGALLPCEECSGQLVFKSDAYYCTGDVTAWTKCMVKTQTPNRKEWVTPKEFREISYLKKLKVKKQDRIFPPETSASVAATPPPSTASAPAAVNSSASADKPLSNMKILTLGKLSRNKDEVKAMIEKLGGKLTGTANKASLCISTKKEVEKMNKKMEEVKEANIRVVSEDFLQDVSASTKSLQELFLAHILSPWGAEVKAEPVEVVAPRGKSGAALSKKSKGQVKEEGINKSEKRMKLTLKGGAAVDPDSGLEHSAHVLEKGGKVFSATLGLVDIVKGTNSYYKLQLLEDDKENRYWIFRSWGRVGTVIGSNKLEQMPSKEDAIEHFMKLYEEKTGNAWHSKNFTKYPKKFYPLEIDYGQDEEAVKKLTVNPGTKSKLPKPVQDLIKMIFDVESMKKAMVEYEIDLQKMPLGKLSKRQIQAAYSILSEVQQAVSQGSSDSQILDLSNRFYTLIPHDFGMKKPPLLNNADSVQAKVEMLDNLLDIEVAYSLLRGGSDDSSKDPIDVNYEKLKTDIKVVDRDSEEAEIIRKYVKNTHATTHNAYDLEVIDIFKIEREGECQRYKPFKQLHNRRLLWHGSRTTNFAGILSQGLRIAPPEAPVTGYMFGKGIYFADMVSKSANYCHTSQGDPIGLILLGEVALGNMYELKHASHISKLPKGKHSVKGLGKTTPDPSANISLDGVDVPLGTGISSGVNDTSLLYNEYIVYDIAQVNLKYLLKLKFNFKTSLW

With [^77Br]Br-WC-DZ, the Kd stood at 0.58 ± 0.25 nM.
